Test results as given in patent US7083941B2, “Compositions and methods for gender sorting” (priority 2001, dated 2006).

biological target: T1, human estrogen receptor (Homo sapiens, UniProt P03372, G400V); details: not given
T1 sequence (P03372 1-595 G400V): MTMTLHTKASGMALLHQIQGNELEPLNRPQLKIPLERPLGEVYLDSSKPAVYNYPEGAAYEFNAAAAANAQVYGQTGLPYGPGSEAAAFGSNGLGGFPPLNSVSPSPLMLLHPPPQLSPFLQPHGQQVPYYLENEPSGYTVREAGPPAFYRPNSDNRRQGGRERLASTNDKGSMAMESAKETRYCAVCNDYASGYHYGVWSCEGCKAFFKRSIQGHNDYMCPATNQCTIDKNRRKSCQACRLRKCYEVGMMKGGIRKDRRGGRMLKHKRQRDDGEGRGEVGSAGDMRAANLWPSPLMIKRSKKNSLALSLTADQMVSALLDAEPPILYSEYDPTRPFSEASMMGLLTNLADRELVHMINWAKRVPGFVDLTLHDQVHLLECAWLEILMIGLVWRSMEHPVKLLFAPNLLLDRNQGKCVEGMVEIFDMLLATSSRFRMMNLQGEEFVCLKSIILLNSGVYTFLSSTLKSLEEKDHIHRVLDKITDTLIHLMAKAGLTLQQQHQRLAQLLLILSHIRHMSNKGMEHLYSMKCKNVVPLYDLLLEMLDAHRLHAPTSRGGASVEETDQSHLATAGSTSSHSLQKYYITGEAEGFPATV

| Molecule | Percent Cross Reactivity |
| --- | --- |
| 4-Hydroxytamoxifen | <0.25% |

same assay, conditions: cross-activity determined at concentration of 50% maximum potency; 17-β Estradiol = 100

| Molecule | Percent Cross Reactivity |
| --- | --- |
| COc1cc2c(cc1O)CC[C@@H]1[C@@H]2CC[C@]2(C)C(=O)CC[C@@H]12 [2-Methoxyestrone] | <0.25% |
| C[C@]12CC[C@@H]3c4ccc(O)cc4CC[C@H]3[C@@H]1C[C@@H](O)C2=O [16-Hydroxyestrone] | 4.0% |
| C[C@]12CCC(=O)C=C1CC[C@@H]1[C@@H]2CC[C@]2(C)C(=O)CC[C@@H]12 [Androstenedione] | <0.05% |
| C[C@]12C[C@H](O)[C@H]3[C@@H](CCC4=CC(=O)CC[C@@]43C)[C@@H]1CC[C@@H]2C(=O)CO [Corticosterone] | <0.025% |
| C#C[C@]1(O)CC[C@H]2[C@@H]3CCC4=Cc5oncc5C[C@]4(C)[C@H]3CC[C@@]21C [Danasol] | <0.025% |
| C[C@]12CC[C@H](O)CC1=CC[C@@H]1[C@@H]2CC[C@]2(C)C(=O)CC[C@@H]12 [Dehydroepiandrosterone] | <0.05% |
| C[C@H]1CC(=O)C[C@@H]2CC[C@H]3[C@@H]4CC[C@H](O)[C@@]4(C)CC[C@@H]3[C@]21C [Mesterolone] | <0.05% |
| CC(=O)[C@H]1CC[C@H]2[C@@H]3CCC4=CC(=O)CC[C@]4(C)[C@H]3CC[C@]12C [Progesterone] | <0.025% |
| C[C@]12CC[C@H]3[C@@H](CCC4=CC(=O)CC[C@@]43C)[C@@H]1CC[C@@H]2O [Testosterone] | <0.05% |
